What was measured:
[1] = test system: NIH3T3 cell line (D5C3) transformed with temperature-sensitive v-abl mutant gene; assay: Blocking transformed phenotype of D5C3 cells; assay type: cell-based, murine; settings: pentoxifylline 1 mM, Ciprofloxacin 50 μg/ml
Method: An NIH3T3 cell line ([MUT]) provides target cells which were transformed by an activated oncogene. The cells were transformed with a temperature-sensitive v-abl mutant gene. This mutant gene encodes a temperature-sensitive v-abl protein that produces a non-oncogenic product at a non-permissive temperature due to a lack of tyrosine phosphorylation. The cells were incubated at the permissive temperature (33° C.) for 5 days after passage with and without pentoxifylline (1 mM).

T cell proliferation = settings: Singer et al., Bone Marrow Transplantation (in press); cited from earlier work
[2] = test system: PA and DAG levels in human glomerular mesangial cells; assay: Invention assay: HPLC of lipids from IL-1-stimulated mesangial cells; assay type: cell-based; settings: HMC incubated with diacylglycerol kinase inhibitor
Method: The compounds of Formula I are shown to modulate the effects of primary stimuli which elevate levels of the relevant subspecies of PA and DAG using the assay system of the invention. In general for the assay, the cells to be tested are first incubated with the primary stimulating agent for various time periods and fixed in ice-cold methanol. The lipids are extracted using, for example, chloroform:methanol 2:1 (v/v), and the extracts are then subjected to HPLC as described by Bursten and Harris, Biochemistry (1991)------. In this method, a Rainin mu-Porasil column is used with a 3:4 hexane:propanol organic carrier and a 1-10% water gradient during the first 10 minutes of separation. Detection of the peaks in the elution pattern is by absorption in the range of ultraviolet which detects isolated double bonds. Thus, the relevant peaks of unsaturated PA and DAG are shown in the elution pattern. It is important to note that the assay method permits discrimination between various forms of PA and DAG so that those relevant to the pathway affected by the compounds of Formula I can be measured directly. Confirmation of the nature of the acyl substituents of these components is accomplished using fast-atom bombardment mass spectroscopy. Thus, the relevant unsaturated (non-arachidonic) PA and DAG subspecies may be detected. The time periods employed are 5-60 seconds after stimulation with the primary stimulus, such as a cytokine. This technique permits assessment of the levels of various lipid components as a function of time.
To test the effect of the compounds of the invention, the candidate compound is included in the initial incubation at various concentrations. Fixing, extraction and HPLC are conducted as above. The effect of the candidate compound is then reflected in a lowering of the relevant PA and DAG levels as compared to the cells without candidate in the control as illustrated hereinbelow.
Human glomerular mesangial cells were incubated with IL-1 for various time periods of 5-60 seconds and the cells were fixed in ice-cold methanol, and the lipids extracted using chloroform:methanol 2:1 (v/v). It is very important that the fixing/extraction process be conducted quickly so that the decomposition of unstable intermediates is halted.
The extracts were subjected to HPLC on a Rainin mu-Porasil column with a 3:4 hexane:propanol organic carrier and a 1-10% water gradient during the first 10 minutes of separation. The relative concentration of each lipid species is determined using absorption at 206 nm (A206), which follows unsaturated acyl content of lipid species. […] The absolute mass of each lipid species is determined by lisolation of the lipid using a fraction collector, repurification on the HPLC column. […] Protein concentration is determined using the Bradford technique. […]

[3] = test system: recipients of marrow from unrelated donors; assay: Unrelated donor trial; assay type: in vivo, human
Source text: (§1) They are given steroids to reduce inflammation. […] In this group of patients, GVHD approaches 90%.

[4] = test system: patients undergoing allogeneic bone marrow transplant; assay: Preliminary study in allogeneic bone marrow transplant patients; assay type: in vivo, human; settings: first 30 days post-transplant; PTX/CIPRO N=10, GM-CSF N=27; all also PD and cyclosporin
Method: A preliminary study was conducted on patients undergoing allogeneic bone marrow transplant for multiple myeloma, for lymphoid malignancies, or for advanced stage CML or AML. Prednisone is often administered as an immunosuppressant in all experimental groups. In the study, these patients received the drugs for a minimum of 3 days to a maximum of 7 days prior to starting their preparative regimen while in the outpatient department according to the following regimen:
PTX: 600 mg p.o. qid at 9 am, 1 pm, 5 pm and 9 pm;
CIPRO: 500 mg p.o.b.i.d.; and
PD: 0.5 mg/kg b.i.d. (total 1 mg/kg/day changed to methylprednisolone at an equivalent dose starting on day -1).
For the duration of therapy, the patients are continued on the study drugs as follows:
PTX: until day +20 post-transplant then tapered 600 mg/day until off;
CIPRO: until day 30 post-transplant or day of discharge if sooner than day 30; and
PD: tapered starting on day 0 over 14 days until off.
All patients in these studies received PD and cyclosporin as GVHD prophylaxis. Granulocyte recovery was measured post-bone marrow transplant in patients receiving therapy with PTX, CIPRO in addition to standard PD administration (N=10), or GM-CSF (N=10), or PTX (N=4).

[5] = test system: recipients of matched allogeneic donor marrow; assay: Matched allogeneic donor trial; assay type: in vivo, human
Source text: as §1

[6] = day on which ANC ≥ 100 cells/uL on two consecutive days
[7] = day on which ANC ≥ 1,000 cells/uL on two consecutive days
[8] = first day RBC count ≥ 30% for 7 consecutive days untransfused
[9] = first day platelet count ≥ 20,000/uL for 7 consecutive days untransfused
[10] = initial discharge from the hospital
[11] = maximum serum bilirubin days 0-28 post BMT
[12] = maximum serum creatinine day 0-28 post BMT

## O=C(O)c1cn(C2CC2)c2cc(N3CCNCC3)c(F)cc2c1=O [Ciprofloxacin]
[1]
  effect on the transformed phenotype: significant effect

## Cn1c(=O)n(CCCCC(C)(C)O)c(=O)c2[nH]cnc21 [HWA138, reference compound]
T cell proliferation
  suppression of T cell proliferation: minimal or no suppression

## CCOCn1cnc2c1c(=O)n(CCCCC(C)(C)O)c(=O)n2C [HWA448, reference compound]
T cell proliferation
  suppression of T cell proliferation: active

## CC(O)CCCCn1c(=O)c2c(ncn2C)n(C)c1=O (stereo not shown) [M1, 1-(5-hydroxyhexyl)-3,7-dimethylxanthine]
T cell proliferation
  suppression of T cell proliferation: active

## CC(O)C(O)CCCn1c(=O)c2c(ncn2C)n(C)c1=O (stereo not shown) [M3, 1-(4,5-dihydroxyhexyl) -3,7-dimethylxanthine]
T cell proliferation
  suppression of T cell proliferation: minimal or no suppression

## Cn1cnc2c1c(=O)n(CCCCC(=O)O)c(=O)n2C [M4, 1-(4-carboxybutyl)-3,7-dimethylxanthine]
T cell proliferation
  suppression of T cell proliferation: minimal or no suppression

## Cn1cnc2c1c(=O)n(CCCC(=O)O)c(=O)n2C [M5, 1-(3-carboxypropyl)-3,7-dimethylxanthine]
T cell proliferation
  suppression of T cell proliferation: minimal or no suppression

## Cc1nc2sccn2c(=O)c1CCN1CCC(=C(c2ccccc2)c2ccc(F)cc2)CC1 [R 50922]
[2]
  HPLC pattern (reappearance of PA after IL-1): does not alter the HPLC pattern

## GM-CSF: granulocyte-macrophage colony-stimulating factor
[3]
  ANC ≤ 100, mean ± standard deviation: 12 ± 7 days
  ANC ≥ 100, mean ± standard deviation: 18 ± 6 days
  ANC ≥ 100, median: 18.5 days
  ANC ≥ 500, mean ± standard deviation: 23 ± 4 days
  ANC ≥ 500, median: 22.5 days
  ANC ≥ 1,000, mean ± standard deviation: 26 ± 5 days
  ANC ≥ 1,000, median: 26.0 days
  Bili ≥ 5.0 mg/dL, patients: 46%
  Day 100 Survival: 86%
  Day initial discharge, mean ± standard deviation: 37 ± 14 days
  Day initial discharge, median: 37.0 days
  GVHD Grade 0: 15%
  GVHD Grade I: 8%
  GVHD Grade II: 46%
  GVHD Grade III: 27%
  GVHD Grade IV: 4%
  Infection 0-28: 7%
  Last plt day, mean ± standard deviation: 26 ± 6 days
  Last plt day, median: 24.5 days
  Max Bili, mean ± standard deviation: 7 ± 7 mg/dL
  Max Bili, median: 5.5 mg/dL
  Max Creat, mean ± standard deviation: 1.4 ± 1.2 mg/dL
  Max Creat, median: 1.1 mg/dL
  Units platelets, mean ± standard deviation: 90 ± 42 units
  Units platelets, median: 92.0 units
[3]; GM-CSF 30, PTX/CIPRO 17 patients
  ANC ≤ 100, median: 12 days
[4]
  platelet transfusion requirement: 87±69 units
  red blood cell requirement: 24.7±24 units
[5]; [6]
  ANC ≥ 100, mean ± standard deviation: 8 ± 6 days
  ANC ≥ 100, median: 9.0 days
[5]; [7]
  ANC ≥ 1,000, mean ± standard deviation: 16 ± 9 days
  ANC ≥ 1,000, median: 14.0 days
[5]; days 0-28 post BMT
  Bili ≥ 5.0 mg/dL, patients: 44%
  Creat ≥ 2.0 mg/dL, patients: 22%
[5]; days below 100 cells/uL
  ANC ≤ 100, mean ± standard deviation: 6 ± 4 days
[5]; days below 100 cells/uL, GM-CSF 27, PTX/CIPRO 23 patients
  ANC ≤ 100, median: 5.0 days
[5]; [8]
  Last RBC day, mean ± standard deviation: 63 ± 39 days
  Last RBC day, median: 59.0 days
[5]; [9]
  Last plt day, mean ± standard deviation: 17 ± 11 days
  Last plt day, median: 23.0 days
[5]; [10]
  Day discharge, mean ± standard deviation: 26 ± 13 days
  Day discharge, median: 24.0 days
[5]; [11]
  Max Bili, mean ± standard deviation: 8 ± 10 mg/dL
  Max Bili, median: 5.0 mg/dL
[5]; [12]
  Max Creat, mean ± standard deviation: 1.8 ± 1.4 mg/dL
  Max Creat, median: 1.5 mg/dL
[5]; patients alive 100 days post transplant
  Day 100 Survival: 69%
[5]; patients with positive bacterial blood cultures days 0-28 post BMT
  Infection 0-28: 14%
[5]; platelets transfused day 0-28
  Units platelets, mean ± standard deviation: 87 ± 74 units
  Units platelets, median: 74.0 units

Source: patent US5585380A, “Modulation of cellular response to external stimuli” (priority 1995, dated 1996)
